# Measured values published in US11014896B2, “TRPA1 and TRPV4 inhibitors and methods of using the same for organ-specific inflammation and itch” (Duke University, priority 2014, dated 2021).
# How the values were obtained:
# [1] = Formalin-evoked nocifensive (rubbing) behavior, whisker-pad injection, in vivo pain model in mice; parameters: species or system mouse; conditions: for formalin-induced nocifensive behavior, time course: FIG. 21D; for formalin-induced nocifensive behavior, quantitation, in particular second phase: compounds pre-injected at 0.5 mM/10 μL into whiskerpad 15 min before 4% formalin
# Protocol: Compounds were tested for their effect in reducing pain using an in vivo pain model in mice. For mouse formalin-evoked irritant behavior measurements, mice were well-fed, well-rested, and tested at the same time of day, at the same time-point of their circadian rhythm. They were allowed to acclimate to a plexiglas chamber for at least 30 min before testing, and received 10 μL subcutaneous injection of 4% of formalin (diluted from an aqueous solution of commercial 37% formaldehyde with normal saline (NS)) through a 30-gauge needle into the right whiskerpad, as further detailed in Luccarini et al. (J. Pain, 2006, 7, 908-914). Normal saline was used as control injection. After injection, mice were immediately placed back into the chamber and the rubbing behavior was recorded by a private consumer-type video-camera for a 45 min observation period. The recording time was divided into 9 blocks of 5 min, and a nociceptive score was determined per block by measuring the time that the animals spent rubbing the injected area predominantly with the ipsilateral fore-paw and rarely with hind-paw. This rubbing behavior with fore-paw is evoked by pain, which is distinct from itch behavior. Behavioral analysis was conducted by observers blinded to treatment.
# To investigate the effects of the specific compounds GSK205, 16-8, and 16-8/18hy on formalin-induced nociceptive behavior, mice received a single subcutaneous injection of the compounds into the whiskerpad (10 μL, dissolved in 4% DMSO) 15 min before formalin injection. Control animals received the same volume of NS, 4% DMSO.
# [2] = UVB-overexposure evoked nocifensive behavior (mouse model for sunburn), topical treatment; format: in vivo; conditions: 0.5 mM in 40 μL, n=4/group
# Protocol: Compounds were tested for their effect on nocifensive behavior (response to pain) following UVB overexposure. Behavioral tests were performed to evaluate the decrease in withdrawal thresholds in response to mechanical von Frey hair or thermal stimuli applied to hind paws. The Von-Frey apparatus (Ugo Basile) applied a mechanical stimulus with a flexible steel wire from underneath the hind paw. The force leading to withdrawal was determined. For the thermal stimuli test, paws were stimulated with heat from underneath applied by an infrared beam (Hargreave's test apparatus; Ugo Basile), and withdrawal latencies were recorded. The withdrawal thresholds were ascertained before and after UV exposure. Mice were exposed to UVB 3-5 days after the last application of tam/oil, using a Bio-Rad Gel Doc 2000 UV transilluminator (302 nm) for 5 min with an exposure of 600 mJ/cm^2. This represents 5-10 times the minimal erythema-inducing dose, in keeping with the rationale of inducing sunburn and studying sunburn-evoked pain.
# human TRPA1 = target: T1, human TRPA1 (Homo sapiens, UniProt O75762); experiment: Ca2+ transient in N2a cells transfected with human TRPA1; format: cell-based
# T1 construct: expressed in transfected cells; host or cells: N2a cells, pcDNA3.1 plasmid, co-transfected with an eGFP plasmid
# T1 sequence (O75762 whole entry): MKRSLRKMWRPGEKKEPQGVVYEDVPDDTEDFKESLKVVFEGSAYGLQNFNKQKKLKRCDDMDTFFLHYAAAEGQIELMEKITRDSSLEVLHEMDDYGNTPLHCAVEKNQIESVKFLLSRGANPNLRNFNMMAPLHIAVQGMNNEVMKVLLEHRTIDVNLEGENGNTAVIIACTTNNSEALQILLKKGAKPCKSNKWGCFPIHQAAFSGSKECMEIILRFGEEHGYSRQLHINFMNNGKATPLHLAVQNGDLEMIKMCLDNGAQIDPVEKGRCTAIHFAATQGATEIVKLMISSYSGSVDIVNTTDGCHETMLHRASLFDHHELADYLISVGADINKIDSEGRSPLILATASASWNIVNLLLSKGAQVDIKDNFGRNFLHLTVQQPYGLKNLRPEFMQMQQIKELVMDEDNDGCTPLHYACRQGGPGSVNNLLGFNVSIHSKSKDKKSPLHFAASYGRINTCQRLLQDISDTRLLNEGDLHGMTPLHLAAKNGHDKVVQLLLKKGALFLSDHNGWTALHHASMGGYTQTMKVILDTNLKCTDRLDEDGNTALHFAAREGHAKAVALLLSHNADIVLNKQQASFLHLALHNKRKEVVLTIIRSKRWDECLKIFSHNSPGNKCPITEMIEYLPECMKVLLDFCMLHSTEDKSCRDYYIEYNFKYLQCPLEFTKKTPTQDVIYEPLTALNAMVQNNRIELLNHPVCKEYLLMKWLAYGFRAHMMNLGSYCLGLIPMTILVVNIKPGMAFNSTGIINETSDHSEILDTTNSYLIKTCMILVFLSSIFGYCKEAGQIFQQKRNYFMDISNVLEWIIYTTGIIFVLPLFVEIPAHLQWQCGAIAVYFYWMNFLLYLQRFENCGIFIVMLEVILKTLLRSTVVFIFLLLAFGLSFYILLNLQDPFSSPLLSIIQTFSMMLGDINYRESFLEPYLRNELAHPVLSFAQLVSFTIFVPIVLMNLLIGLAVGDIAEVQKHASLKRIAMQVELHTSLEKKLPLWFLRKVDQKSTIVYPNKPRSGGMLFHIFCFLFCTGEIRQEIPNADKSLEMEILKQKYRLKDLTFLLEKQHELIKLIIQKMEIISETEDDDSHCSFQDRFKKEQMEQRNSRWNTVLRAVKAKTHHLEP
# Protocol: Compounds were tested for their effect on TRPA1. N2a permanent cells were transfected with human TRPA1 cDNA, using a pcDNA3.1 expression plasmid. They were co-transfected with eGFP-expressing plasmid, or, for control, with eGFP plasmid only.
# TRPV4 = TRPV4 (Homo sapiens, UniProt Q9HBA0); experiment: TRPV4-mediated calcium influx in N2a cells with targeted expression of human TRPV4; format: cell-based; parameters: expressed in transfected cells; host or cells: N2a cells; conditions: 2.5 μM inhibitor, pre-incubation 10 min; TRPV4 activated with 10 nM GSK101
# TRPV4, sequence (Q9HBA0 whole entry): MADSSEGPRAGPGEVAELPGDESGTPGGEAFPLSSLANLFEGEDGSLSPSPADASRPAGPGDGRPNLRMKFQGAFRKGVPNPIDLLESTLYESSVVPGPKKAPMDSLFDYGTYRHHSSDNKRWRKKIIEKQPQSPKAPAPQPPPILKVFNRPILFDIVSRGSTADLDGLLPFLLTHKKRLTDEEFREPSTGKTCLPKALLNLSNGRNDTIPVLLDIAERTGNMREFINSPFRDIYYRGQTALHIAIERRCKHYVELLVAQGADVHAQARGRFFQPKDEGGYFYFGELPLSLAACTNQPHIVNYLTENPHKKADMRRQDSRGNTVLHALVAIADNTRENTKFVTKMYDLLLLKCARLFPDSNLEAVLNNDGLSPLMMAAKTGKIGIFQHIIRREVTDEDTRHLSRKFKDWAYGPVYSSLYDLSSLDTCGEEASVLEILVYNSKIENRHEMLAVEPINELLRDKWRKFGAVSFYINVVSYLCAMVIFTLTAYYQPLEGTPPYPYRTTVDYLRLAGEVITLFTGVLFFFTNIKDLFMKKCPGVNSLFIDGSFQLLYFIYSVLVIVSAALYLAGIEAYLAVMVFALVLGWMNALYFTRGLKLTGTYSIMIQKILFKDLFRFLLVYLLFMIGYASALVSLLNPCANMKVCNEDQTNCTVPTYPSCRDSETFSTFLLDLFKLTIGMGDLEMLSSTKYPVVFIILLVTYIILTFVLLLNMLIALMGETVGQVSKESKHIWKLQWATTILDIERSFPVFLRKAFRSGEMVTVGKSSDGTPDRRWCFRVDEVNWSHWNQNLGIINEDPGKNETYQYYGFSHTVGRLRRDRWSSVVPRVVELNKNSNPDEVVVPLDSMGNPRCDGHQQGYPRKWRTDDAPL
# Protocol: Compounds (GSK205, 16-12, 16-13, 16-14, 16-18, 16-8, and 16-8/18hy) were tested for their effect on TRPV4-mediated calcium influx in N2a cultured cells with targeted expression of human TRPV4. Ca2+ imaging was performed according to Li et al. (Environ. Health Perspect. 2011, 119, 784-93) and Moore et al. (Proc. Natl. Acad. Sci. U.S.A. 2013, 110, E3225-E3234). Briefly, Ca2+ imaging of primary mouse epidermal keratinocytes (1° MK) in response to chemical activation of TRPV4 was conducted after loading with 2 μM fura2-AM, following a ratiometric Ca2+-imaging protocol with 340/380 nm blue light for dual excitation. Ratios of emissions were acquired at 0.5 Hz. ΔR/R0 was determined as the fraction of the increase of a given ratio over baseline ratio, divided by baseline ratio. For stimulation of cells with UVB, where fura-2 was not suitable because of the proximity of stimulation with 340/380 nm vs. 295 nm, 2 μM fluo4-AM was used instead. Ca2+ imaging was carried out at 488 nm excitation, acquisition of emissions at 0.5 Hz, expressed as ΔF/F0. TRPV4 was activated with 10 nM GSK101, a specific activator, which had no effect on RFP-transfected cells. Each of the […] compounds were added to a concentration of 2.5 μM, and its effect was observed.
inhibition of TRPA1 activity (human TRPA1; doses below or equaling 25 μM),SMILES,"formalin-induced nocifensive behavior at the 45-min time-point ([1]; 0.5 mM/10 μL, 45-min time-point)","formalin-induced nocifensive behavior, time course ([1]; 0.5 mM/10 μL)","formalin-induced nocifensive behavior, quantitation, in particular second phase [1]",UVB-overexposure evoked nocifensive behavior (response to pain) [2],inhibitory activity against human TRPA1 (human TRPA1; 5 μM compound),inhibition of TRPV4-mediated calcium influx (peak calcium concentration in the cells) (TRPV4)
,CN(CCc1ccc(Nc2nc(-c3ccccc3)cs2)cc1)Cc1ccccc1 [Compound 16-8],reduction to control levels,significantly attenuated nocifensive behavior,significant attenuation of nocifensive behavior,especially effective in reducing the response to pain,inhibitory activity,most potent
did not inhibit TRPA1 activity,CN(CCc1ccc(Nc2nc(-c3cccnc3)cs2)cc1)Cc1ccccc1 [GSK205],,not different from control,lack of effect,as effective as vehicle,,very low potency
